Laboratory results from PMC5701137, “Discovery of novel choline acetyltransferase inhibitors using structure-based virtual screening” (Scientific Reports, 2017).

Test system: HEK 293 cells
Assay: MTT cell viability assay
Type: cell-based
Conditions: for % of cell proliferation: overnight, control cells 100%, mean ± SD of 3 readings; for cellular toxicity in MTT assay (in words): 10 and 50 µM
Experimental: Finally, to assess the prospective of the identified compounds for further development into ChAT ligands, we assessed the compounds active against ChAT, AChE and BuChE, for their cellular toxicity on human embryonic kidney (HEK 293) cells using the cell viability 3-(4,5-dimethylthiazol-2-yl)-2,5-diphenyltetrazolium bromide (MTT) assay. All compounds were evaluated at 10 and 50 µM concentrations. The cell viability data is given in Table 4 (also represented as a bar chart in Fig. 9).
The in vitro cellular toxicity of the active compounds was evaluated using MTT assay. Briefly, Human embryonic kidney epithelial (HEK-293) cells cultured at 37 °C in a humidified environment with 5% CO2 in Dulbecco’s Modified Eagle’s medium (DMEM) in 96 well plate to obtain 70–80% confluency. Further, the cells were incubated overnight at 37 °C with 10 µM and 50 µM compounds in triplicate. Cells treated with 1% DMSO were used as controls. At the end of the treatment (12 h), 10 μL of 12 mM MTT dissolved in Phosphate buffer saline pH 7.4, was added to each well and incubated for an additional 2 h at 37 °C. The media was then removed from the plate and 100 µL of DMSO was added to dissolve the violet formazan crystals. Finally, the absorbance was measured at 540 nm with a reference wavelength of 630 nm on Tecan spectrophotometer with shaking before the reading. The percentage viability was calculated taking 1% DMSO control as 100 percent and presented as mean ± SD.

CC(C)NC(=O)C1CCN(C(=O)c2csc(Nc3cccc4ccccc34)n2)CC1 [Compound B4]
% of cell proliferation (10 µM): 106.4 ± 5.8% | % of cell proliferation (50 µM): 74.2 ± 3.9% | cellular toxicity in MTT assay (in words): lower cellular toxicity

CC(C)c1ccc(C(=O)CSc2n[nH]c(-c3ccco3)n2)cc1 [Compound E1]
% of cell proliferation (10 µM): 101.9 ± 0.6% | % of cell proliferation (50 µM): 75.4 ± 4.9% | cellular toxicity in MTT assay (in words): lower cellular toxicity
